#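 Compound exposure: 48 hours, 5 concentrations, 96-well plates. GI50 marks 50% less growth.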 Active and inactive are the calls of the source. Cut-off read from the data, not from the text of the source: active = GI50 up to about 1.1 µM and inactive = higher.
# Experiments:
# Assay in all cases: DTP human tumour cell line panel, 48 h
# [1] = tested on: SK-OV-3
# [2] = tested on: Malme-3M
# [3] = tested on: SNB-75
# [4] = tested on: MCF7
# [5] = tested on: Hs-578T
# [6] = tested on: MOLT-4
# [7] = tested on: HCC 2998
# [8] = tested on: NCI-H522
# [9] = tested on: OVCAR-3
# [10] = tested on: CAKI-1
# [11] = tested on: NCI-H226
# [12] = tested on: HOP-62
# [13] = tested on: RXF 393
# [14] = tested on: SF-539
# [15] = tested on: KM12
# [16] = tested on: SW-620
# [17] = tested on: SK-MEL-28
# [18] = tested on: IGROV-1
# [19] = tested on: COLO 205
# [20] = tested on: A498
SMILES,GI50 [1],GI50 [2],GI50 [3],GI50 [4],GI50 [5],GI50 [6],GI50 [7],GI50 [8],GI50 [9],GI50 [10],GI50 [11],GI50 [12],GI50 [13],GI50 [14],GI50 [15],GI50 [16],GI50 [17],GI50 [18],GI50 [19],GI50 [20]
COc1cc(C2SC(=N)Nc3c2c(C)nn3C(=O)c2ccc(Cl)cc2)cc(OC)c1OC (stereo not given),> 10 µM (inactive),> 10 µM (inactive),> 10 µM (inactive),> 10 µM (inactive),> 10 µM (inactive),> 10 µM (inactive),> 10 µM (inactive),> 10 µM (inactive),> 10 µM (inactive),> 10 µM (inactive),> 10 µM (inactive),> 10 µM (inactive),> 10 µM (inactive),> 10 µM (inactive),> 10 µM (inactive),> 10 µM (inactive),> 10 µM (inactive),> 10 µM (inactive),> 10 µM (inactive),
CO/N=C(/C)c1cccc(Nc2nc3ccc(Cl)cc3c3[nH]c4ccccc4c23)c1,21.8 µM (inactive),,,10.3 µM (inactive),16.7 µM (inactive),5.13 µM (inactive),,4.75 µM (inactive),4.62 µM (inactive),10.4 µM (inactive),12.5 µM (inactive),11.7 µM (inactive),1.52 µM (inactive),15.6 µM (inactive),3.97 µM (inactive),6.08 µM (inactive),,10.6 µM (inactive),5.87 µM (inactive),4.29 µM (inactive)
Cc1cccc2c1[nH]c1[nH]c(=O)[nH]c(=O)c12,> 100 µM (inactive),> 100 µM (inactive),13 µM (inactive),> 100 µM (inactive),53.3 µM (inactive),> 100 µM (inactive),,> 100 µM (inactive),30.7 µM (inactive),> 100 µM (inactive),> 100 µM (inactive),> 100 µM (inactive),> 100 µM (inactive),> 100 µM (inactive),> 100 µM (inactive),> 100 µM (inactive),,> 100 µM (inactive),> 100 µM (inactive),> 100 µM (inactive)
COc1ccc2c(c1OC)OCC(CN(C)C)C2=O (stereo not given),> 43.1 µM (inactive),18.5 µM (inactive),22.3 µM (inactive),8.95 µM (inactive),39.1 µM (inactive),2.23 µM (inactive),18.7 µM (inactive),0.187 µM (active),21.5 µM (inactive),3.01 µM (inactive),> 47.1 µM (inactive),> 51.8 µM (inactive),16.6 µM (inactive),20.4 µM (inactive),16.5 µM (inactive),7.45 µM (inactive),17.4 µM (inactive),18.6 µM (inactive),8.07 µM (inactive),
NS(=O)(=O)c1ccc(CNC(=S)NC(=O)Nc2ccc(Cl)c(Cl)c2)cc1,19.6 µM (inactive),26.2 µM (inactive),17.5 µM (inactive),19.5 µM (inactive),17.1 µM (inactive),15.9 µM (inactive),,16 µM (inactive),,,,18.6 µM (inactive),27.9 µM (inactive),21.2 µM (inactive),19 µM (inactive),18.9 µM (inactive),21.6 µM (inactive),17.9 µM (inactive),33 µM (inactive),16.2 µM (inactive)
COc1cc(/C=N/NC(=O)c2c(Cl)c(Cl)c(Cl)c(Cl)c2-c2nc3cc(C(=O)c4ccccc4)ccc3[nH]2)ccc1O,56.4 µM (inactive),54.8 µM (inactive),42.1 µM (inactive),26.5 µM (inactive),60 µM (inactive),16.4 µM (inactive),,22.1 µM (inactive),40 µM (inactive),62.2 µM (inactive),34.2 µM (inactive),38.5 µM (inactive),21.6 µM (inactive),24.9 µM (inactive),46.5 µM (inactive),34.5 µM (inactive),49.2 µM (inactive),47.6 µM (inactive),24.8 µM (inactive),
O/N=C1/CC2(N3CCOCC3)C3CC/C(=N\O)C2CC1(Cc1ccccc1)C3 (stereo not given),> 100 µM (inactive),> 100 µM (inactive),36.1 µM (inactive),66.4 µM (inactive),,> 100 µM (inactive),> 100 µM (inactive),> 100 µM (inactive),> 100 µM (inactive),> 100 µM (inactive),> 100 µM (inactive),> 100 µM (inactive),18.3 µM (inactive),> 100 µM (inactive),> 100 µM (inactive),> 100 µM (inactive),> 100 µM (inactive),> 100 µM (inactive),82 µM (inactive),> 100 µM (inactive)
Cc1cnoc1/N=C1\C=C(O)C(=O)c2ccccc21,> 100 µM (inactive),3.02 µM (inactive),10.4 µM (inactive),4.26 µM (inactive),7.6 µM (inactive),17.4 µM (inactive),,34.5 µM (inactive),5.26 µM (inactive),28.6 µM (inactive),35.3 µM (inactive),10 µM (inactive),,21.4 µM (inactive),11.9 µM (inactive),25.8 µM (inactive),29.9 µM (inactive),22.8 µM (inactive),35.9 µM (inactive),29 µM (inactive)
COC(=O)c1ccc(/C=C2\Cc3ccccc3C2=O)cc1,> 100 µM (inactive),,> 100 µM (inactive),> 100 µM (inactive),> 100 µM (inactive),> 100 µM (inactive),> 100 µM (inactive),> 100 µM (inactive),> 100 µM (inactive),> 100 µM (inactive),,> 100 µM (inactive),> 100 µM (inactive),> 100 µM (inactive),> 100 µM (inactive),> 100 µM (inactive),> 100 µM (inactive),,> 100 µM (inactive),
COc1cc(/C=c2\sc3n(c2=O)C(c2ccc(Cl)cc2)C2=C(CCCC2C)N=3)cc(OC)c1OC (stereo not given),> 100 µM (inactive),,> 100 µM (inactive),> 100 µM (inactive),> 100 µM (inactive),> 100 µM (inactive),,,,> 100 µM (inactive),,> 100 µM (inactive),> 100 µM (inactive),,> 100 µM (inactive),> 100 µM (inactive),> 100 µM (inactive),> 100 µM (inactive),,> 100 µM (inactive)
O=C1NC(=O)C(CC(C(=O)C(=O)Nc2ccccc2Cl)C(=O)c2ccc3ccccc3c2)C(=O)N1 (stereo not given),> 100 µM (inactive),,> 100 µM (inactive),> 100 µM (inactive),> 100 µM (inactive),> 100 µM (inactive),> 100 µM (inactive),> 100 µM (inactive),> 100 µM (inactive),> 100 µM (inactive),> 100 µM (inactive),> 100 µM (inactive),> 100 µM (inactive),> 100 µM (inactive),> 100 µM (inactive),> 100 µM (inactive),> 100 µM (inactive),> 100 µM (inactive),> 100 µM (inactive),
COc1nn(Cc2ccccc2F)c2ccc([N+](=O)[O-])cc12,,> 85.3 µM (inactive),> 100 µM (inactive),> 100 µM (inactive),> 45.9 µM (inactive),> 20 µM (inactive),> 100 µM (inactive),> 30 µM (inactive),> 100 µM (inactive),> 100 µM (inactive),> 100 µM (inactive),18.9 µM (inactive),7.48 µM (inactive),41.1 µM (inactive),> 100 µM (inactive),> 100 µM (inactive),> 100 µM (inactive),> 100 µM (inactive),> 100 µM (inactive),
Cc1cc(C)n(C(=CC(=O)C(Cl)Cl)n2nc(C)cc2C)n1,23.5 µM (inactive),4.35 µM (inactive),> 100 µM (inactive),3.94 µM (inactive),5.21 µM (inactive),0.151 µM (active),,1.79 µM (inactive),3.66 µM (inactive),4.94 µM (inactive),0.735 µM (active),3.66 µM (inactive),2.61 µM (inactive),3.43 µM (inactive),6.49 µM (inactive),3.88 µM (inactive),,9.64 µM (inactive),13.8 µM (inactive),53.1 µM (inactive)
O=C1CC(Br)c2c(Br)sc(Br)c21 (stereo not given),28.8 µM (inactive),19.7 µM (inactive),23.1 µM (inactive),16.5 µM (inactive),36.7 µM (inactive),0.906 µM (active),,12.1 µM (inactive),18.9 µM (inactive),22 µM (inactive),29.8 µM (inactive),20.9 µM (inactive),18.3 µM (inactive),24.5 µM (inactive),22.9 µM (inactive),10.5 µM (inactive),32 µM (inactive),16.6 µM (inactive),19.8 µM (inactive),91.4 µM (inactive)
Cc1ccc(S(=O)(=O)N2CCc3cc(O)c([N+](=O)[O-])cc32)cc1,> 100 µM (inactive),> 100 µM (inactive),> 100 µM (inactive),> 100 µM (inactive),> 100 µM (inactive),> 100 µM (inactive),,> 100 µM (inactive),,> 100 µM (inactive),> 100 µM (inactive),> 100 µM (inactive),> 100 µM (inactive),> 100 µM (inactive),> 100 µM (inactive),> 100 µM (inactive),> 100 µM (inactive),> 100 µM (inactive),> 100 µM (inactive),> 100 µM (inactive)
O=c1[nH]c(NCc2ccncc2)nc2[nH]cnc12,> 100 µM (inactive),> 100 µM (inactive),> 100 µM (inactive),> 100 µM (inactive),> 100 µM (inactive),> 100 µM (inactive),> 100 µM (inactive),> 100 µM (inactive),> 100 µM (inactive),> 100 µM (inactive),> 100 µM (inactive),> 100 µM (inactive),> 100 µM (inactive),,> 100 µM (inactive),> 100 µM (inactive),,> 100 µM (inactive),> 100 µM (inactive),

# From ChEMBL document CHEMBL1201862, “PubChem BioAssay data set” (2004)
